Results published in patent publication US10858323B2, “HDAC inhibitors for the treatment of diabetic peripheral neuropathy” (REGENACY PHARMACEUTICALS, LLC, priority 2015, dated 2020).

What was measured:
[1] = system: streptozotocin-induced diabetic rats (STZ rats); experiment: Von Frey test of tactile allodynia in STZ diabetic rats; format: in vivo, rat; conditions: for tactile allodynia / pain threshold (von Frey): STZ rats, oral dosing days 11-21
Description: Diabetes was induced in male SD rats by IV dosing of STZ (60 mg/kg) on […]. Blood glucose level (BGL) of above 300 mg/dl was observed on study day 3, following STZ dosing, which maintained throughout the study period.
Gabapentin (150 mg/kg) was used as a positive control. Tactile allodynia was measured on the indicated days during dosing and once on day 24, three days after dosing was stopped. Vehicle treated animals experienced low mechanical threshold throughout the treatment period (days 11-21) and also 3 days after the last dose (day 24).

[2] = Blood brain barrier penetration; conditions: in vivo
[3] = system: Rats; experiment: Tail Flick test; format: in vivo, rat; conditions: BID for 4 days or single dose 1 h before test
Description: A Tail Flick test was performed every hour in a time period of four hours after treatments.
Data are presented in FIG. 4 as the latency time in seconds until the animals flicked their tails in response to the heat source. Morphine and Gabapentin were used as positive controls.

[4] = system: streptozotocin hyperglycemic rats, dorsal root ganglia and sciatic nerves; experiment: Metabolomic study in diabetic neuropathic pain model; format: in vivo, rat; conditions: 10 mg/kg twice per day, 11 days
Description: Hyperglycemia was induced in rats with an injection of streptozotocin (60 mg/kg). Ten days later neuropathic pain was confirmed using a von Frey filament test for tactile allodynia. In this test, filaments of increasing diameter were applied to the plantar surface of the rear paw and the force necessary to precipitate a paw withdrawal is determined by the smallest filament needed to invoke a response. […] In addition, three naïve rats and three rats that had tactile allodynia at day 10 were sacrificed and the dorsal root ganglia and sciatic nerves were dissected and frozen as control samples.
Dorsal root ganglia and sciatic nerves were sent to Human Metabolome Technologies for analysis of metabolic intermediates. Extracts from these samples were analyzed by capillary electrophoresis/mass spectrometry to measure the level of charged metabolites. In addition, sciatic nerve extracts were analyzed by liquid chromatography/mass spectrometry to measure the level of non-charged metabolites.

[5] = system: primary rat dorsal root ganglion (DRG) neurons; experiment: Mitochondrial axonal transport live imaging under high glucose; format: cell-based; conditions: 200 mM glucose and 500 nM compound, 24 h
Description: To investigate the effects of hyperglycemia on axonal transport live imaging was used to measure mitochondrial transport in primary rat dorsal root ganglion cells. Primary rat dorsal root ganglion (DRG) neurons (Lonza) were cultured for 5-7 days according to the vendor's protocol. The day before the imaging session cells were infected using CellLight Mitochondria-GFP (BacMam 2.0-based reagent, ThermoFisher Scientific) to fluorescently label mitochondria. […] Media in control wells was replaced with fresh media containing 25 mM glucose (control). Cells were allowed to incubate under these conditions for 24 h. […] Imaging was performed using Zeiss 3i system (Intelligent Imaging Innovations) in temperate controlled environment (37 C). Mitochondria were visualized using FITC filter. Time lapse images were acquired every 2 seconds over the course of 2 min and analyzed using Fiji (ImageJ). MtrackJ plugin was used to manually track mitochondrial movements and calculate parameters such as total distance traveled by each mitochondria. Total distance traveled by a population of mitochondria in each condition was plotted as a cumulative frequency plot. Data presented is a pool of 5 independent experiments.

[6] = system: Dorsal root ganglion neurons (DRGNs); experiment: Tubulin and histone acetylation by western blot of whole cell extracts; format: cell-based, rat; conditions: 24 hours treatment
[7] = system: Dorsal root ganglion neurons (DRGNs); experiment: Acetyl-tubulin fluorescent ICC of axonal microtubules; format: cell-based, rat
Description: DRGNs were treated with Compound 2 on coverslips, fixed and stained with antibodies against acetyl-tubulin and total tubulin (fluorescent ICC) to visualize and quantitate tubulin acetylation in axonal microtubules. […] Acetyl-tubulin signal was normalized to total tubulin signal.

[8] = molecular target: HDAC1 (Homo sapiens (Human), UniProt Q13547); experiment: HDAC enzyme assay (HDAC1); format: biochemical
[9] = molecular target: HDAC3 (Homo sapiens (Human), UniProt O15379); experiment: HDAC enzyme assay (HDAC3); format: biochemical
[10] = molecular target: HDAC6 (Homo sapiens (Human), UniProt Q9UBN7); experiment: HDAC enzyme assay (HDAC6); format: biochemical
[11] = molecular target: HDAC2 (Homo sapiens (Human), UniProt Q92769); experiment: HDAC enzyme assay (HDAC2); conditions: read-out: HDAC2 IC50
Chain of HDAC2 (Q92769 whole entry): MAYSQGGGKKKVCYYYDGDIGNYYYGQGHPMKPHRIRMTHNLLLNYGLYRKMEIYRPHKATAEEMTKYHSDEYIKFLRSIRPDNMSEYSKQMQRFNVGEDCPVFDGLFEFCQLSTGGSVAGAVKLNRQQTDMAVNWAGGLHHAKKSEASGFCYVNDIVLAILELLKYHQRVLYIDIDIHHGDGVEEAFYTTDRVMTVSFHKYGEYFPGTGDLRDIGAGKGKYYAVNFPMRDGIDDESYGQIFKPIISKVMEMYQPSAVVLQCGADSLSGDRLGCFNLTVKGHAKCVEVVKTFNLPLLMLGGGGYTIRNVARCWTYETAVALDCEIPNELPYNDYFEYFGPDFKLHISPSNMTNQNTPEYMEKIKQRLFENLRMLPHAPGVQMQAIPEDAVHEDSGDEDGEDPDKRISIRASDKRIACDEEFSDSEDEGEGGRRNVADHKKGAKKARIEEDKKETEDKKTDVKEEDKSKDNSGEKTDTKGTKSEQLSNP

Chain of HDAC1 (Q13547 whole entry): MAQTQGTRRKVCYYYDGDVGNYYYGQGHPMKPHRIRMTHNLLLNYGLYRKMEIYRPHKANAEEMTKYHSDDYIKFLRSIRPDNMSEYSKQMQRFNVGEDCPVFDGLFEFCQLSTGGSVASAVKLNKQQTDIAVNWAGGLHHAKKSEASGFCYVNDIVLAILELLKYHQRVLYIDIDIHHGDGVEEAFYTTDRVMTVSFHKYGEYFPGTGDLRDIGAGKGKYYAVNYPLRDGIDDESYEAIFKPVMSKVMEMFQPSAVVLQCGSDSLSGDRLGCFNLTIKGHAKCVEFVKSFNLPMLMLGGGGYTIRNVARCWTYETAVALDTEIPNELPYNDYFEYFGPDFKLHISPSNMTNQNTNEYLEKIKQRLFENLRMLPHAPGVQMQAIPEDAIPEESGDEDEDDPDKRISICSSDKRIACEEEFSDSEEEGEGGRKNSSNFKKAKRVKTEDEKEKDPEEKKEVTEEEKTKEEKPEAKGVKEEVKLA
Chain of HDAC3 (O15379 whole entry): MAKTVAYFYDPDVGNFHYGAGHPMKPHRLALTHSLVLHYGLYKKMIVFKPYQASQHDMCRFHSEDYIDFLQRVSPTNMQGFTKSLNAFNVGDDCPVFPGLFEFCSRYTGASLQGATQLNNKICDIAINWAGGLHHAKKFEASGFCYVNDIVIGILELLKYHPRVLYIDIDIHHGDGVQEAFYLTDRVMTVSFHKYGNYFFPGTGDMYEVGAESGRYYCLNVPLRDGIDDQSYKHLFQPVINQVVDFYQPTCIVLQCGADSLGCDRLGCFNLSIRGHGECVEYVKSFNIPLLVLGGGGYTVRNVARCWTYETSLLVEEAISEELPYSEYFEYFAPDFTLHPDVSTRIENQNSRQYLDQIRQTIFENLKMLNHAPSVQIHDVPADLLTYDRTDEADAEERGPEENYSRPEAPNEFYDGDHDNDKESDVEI
Chain of HDAC3 (Q9Y618 395-489 partner): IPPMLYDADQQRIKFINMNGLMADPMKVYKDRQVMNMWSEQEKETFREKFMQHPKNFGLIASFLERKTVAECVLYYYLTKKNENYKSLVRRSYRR
Chain of HDAC6 (Q9UBN7 whole entry): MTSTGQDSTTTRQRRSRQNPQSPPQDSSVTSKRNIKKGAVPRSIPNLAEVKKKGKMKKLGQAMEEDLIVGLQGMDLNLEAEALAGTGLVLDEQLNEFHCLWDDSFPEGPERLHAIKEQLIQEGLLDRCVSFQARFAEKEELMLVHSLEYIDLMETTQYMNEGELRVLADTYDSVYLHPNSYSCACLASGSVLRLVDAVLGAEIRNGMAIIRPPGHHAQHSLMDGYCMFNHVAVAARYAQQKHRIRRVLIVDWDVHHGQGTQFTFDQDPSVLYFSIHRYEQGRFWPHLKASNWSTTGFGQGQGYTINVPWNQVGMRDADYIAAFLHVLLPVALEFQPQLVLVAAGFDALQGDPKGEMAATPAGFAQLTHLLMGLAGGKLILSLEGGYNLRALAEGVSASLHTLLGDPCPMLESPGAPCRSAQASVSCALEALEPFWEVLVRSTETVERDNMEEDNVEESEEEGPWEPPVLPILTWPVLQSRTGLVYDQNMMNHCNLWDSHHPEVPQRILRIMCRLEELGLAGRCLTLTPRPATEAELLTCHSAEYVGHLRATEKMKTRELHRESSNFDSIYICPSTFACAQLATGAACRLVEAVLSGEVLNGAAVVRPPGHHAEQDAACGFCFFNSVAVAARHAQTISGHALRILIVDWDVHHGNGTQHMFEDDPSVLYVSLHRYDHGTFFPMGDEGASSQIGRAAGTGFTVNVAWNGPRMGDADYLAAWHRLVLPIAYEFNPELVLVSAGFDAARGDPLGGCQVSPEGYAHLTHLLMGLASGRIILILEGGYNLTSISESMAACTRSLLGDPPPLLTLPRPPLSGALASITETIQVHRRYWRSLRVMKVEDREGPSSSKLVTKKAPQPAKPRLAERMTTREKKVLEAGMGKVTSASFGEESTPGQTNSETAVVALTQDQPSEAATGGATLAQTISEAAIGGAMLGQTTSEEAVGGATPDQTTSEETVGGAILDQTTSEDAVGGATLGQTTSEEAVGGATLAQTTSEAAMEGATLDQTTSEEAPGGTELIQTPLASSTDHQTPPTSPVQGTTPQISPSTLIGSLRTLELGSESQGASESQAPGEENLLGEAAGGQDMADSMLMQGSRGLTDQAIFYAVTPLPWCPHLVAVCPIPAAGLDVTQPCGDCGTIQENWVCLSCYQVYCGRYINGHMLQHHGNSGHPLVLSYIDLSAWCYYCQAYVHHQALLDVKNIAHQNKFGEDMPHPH

Structure (SMILES) | tactile allodynia / pain threshold (von Frey) [1] | persistence of effect on pain threshold after drug withdrawal ([1]; day 24, three days after dosing was stopped) | blood brain barrier penetration [2] | increase of latency time in Tail Flick test vs vehicle control [3] | metabolic changes incl. acyl-carnitines (AC 16:2, AC 18:2) [4] | mitochondrial movement (total distance traveled) [5] | histone acetylation (western blot) ([6]; at up to 1 uM) | tubulin acetylation (western blot) ([6]; whole cell extracts) | acetylation of axonal microtubules (acetyl-tubulin normalized to total tubulin) [7] | IC50 [8] [nM] | IC50 [9] [nM] | IC50 [10] [nM] | IC50 [11] [nM]
O=C(NO)c1cnc(NC2(c3ccccc3)CC2)nc1 [Compound 1, N-hydroxy-2-((1-phenylcyclopropyl)amino)pyrimidine-5-carboxamide] | reversed tactile allodynia in STZ rats in a dose dependent manner and restored the pain threshold in these rats to almost normal levels | persisted even after the drug was withdrawn | penetrates the blood brain barrier | not effective | normalized many of the metabolic changes, including the changes in acyl-carnitines |  |  |  |  |  |  |  | 
O=C(CCCCCCNC(=O)c1cnc(N(c2ccccc2)c2ccccc2)nc1)NO [Compound 2, 2-(diphenylamino)-N-(7-(hydroxyamino)-7-oxoheptyl)pyrimidine-5-carboxamide] | reversed tactile allodynia in STZ rats in a dose dependent manner and restored the pain threshold in these rats to almost normal levels |  | does not penetrate the blood brain barrier very well | not effective (except in the group that received Compound 2 at 30 mg/kg BID for 4 days) |  | restores normal pattern of mitochondrial movement | Minimal histone acetylation increase | induced an increase in tubulin acetylation in a dose-dependent matter | increases acetylation of axonal microtubules |  |  |  | 
COc1ccc(C(F)(F)F)cc1CNc1ncc(C(=O)NO)cn1 [Compound 3, N-hydroxy-2-((2-methoxy-5-(trifluoromethyl)benzyl)amino)pyrimidine-5-carboxamide] | reversed tactile allodynia in STZ rats in a dose dependent manner and restored the pain threshold in these rats to almost normal levels |  |  |  |  |  |  |  |  | 68 | 105 | 2 | 82
